# Measured values as given in patent US20090227587A1, “Pyrimidines as inhibitors of phosphoinositide-3-kinases (PI3K)” (Warner-Lambert Company LLC, priority 2003, published 2009).
# Assays:
# [1] = system: DBA/1 LacJ mice, collagen induced arthritis; assay: Murine collagen induced arthritis; type: in vivo; settings: 30 mg/kg q.d. oral gavage for two weeks beginning on day 27, female DBA/1 LacJ mice
# Protocol: Bovine type II collagen (University of Utah) was diluted with 0.01N acetic acid to a concentration of 2 mg/mL and emulsified with an equal volume of Freund's complete adjuvant (Difco, Detroit, Mich.) supplemented with 1 mg/mL Mycobacterium tuberculosis Hra37. Age-matched (8-12 weeks) female DBA/1 LacJ mice (Jackson Laboratories, Bar Harbor, Me.) were immunized with 100 μL of emulsion (100 μg collagen) intradermally at the base of the tail. On Day 28 after immunization, the mice were given 50 μg Lipopolysaccharide (Sigma Aldrich, St Louis, Mo.) intraperitoneally (IP) in 100 μL saline. The compound of Example 1 (4-Cycloheptyloxy-2-morpholin-4-yl-pyrimidine-5-carboxylic acid (2H-tetrazol-5-yl)-amide) was dosed at 30 mg/kg q.d. by oral gavage for two weeks beginning on day 27. The development of arthritis was assessed on Days 27, 31, 34, 37, and 41. A clinical score was given to each limb using the following scale: (0) normal, (1) erythema and edema, (2) joint distortion, (3) joint ankylosis. Edema measurements on front paws, rear paws, and ankles were taken using constant tension calipers (Dyer, Lancaster, Pa.). The compound of Example 1 at 30 mg/kg q.d. inhibited paw edema in this model by 52%, and clinical score by 35%.
# [2] = system: Lewis rats, streptococcal cell wall-induced paw edema; assay: SCW streptococcal cell wall-induced paw edema; type: in vivo; settings: 10, 30 and 100 mg/kg q.d. oral gavage for four days beginning on day 21, female Lewis rats
# Protocol: Female Lewis rats (˜150 g) received 6 μg SCW in 10 μl Dulbecco's PBS by an intraarticular injection to the right tibiotalar joint on day 0. On day 21, the recurrence response was initiated with 100 μg SCW (250 μl, i.v.). Vehicle (0.5% hydroxypropylmethylcellulose/0.2% Tween 80) or the compound of Example 1 (4-Cycloheptyloxy-2-morpholin-4-yl-pyrimidine-5-carboxylic acid (2H-tetrazol-5-yl)-amide) was given orally (10 ml/kg volume), q.d., 1 hr prior to SCW, i.v., and on subsequent days. Baseline volumes of the sensitized hind paw were measured by a mercury displacement plethysmometer before disease initiation on day 21, and subtracted from subsequent assessments (made 24 hrs after each dose) to determine the Δ value (the difference between paw volume prior to disease initiation on day 21 and the paw volume 24 hours after each dose). The compound of Example 1 was dosed at 10, 30 and 100 mg/kg q.d. by oral gavage for four days beginning on day 21.
# [3] = target: T1, p101/p110γ protein (PI3Kγ) (Homo sapiens, UniProt P48736); assay: PI3Kγ in vitro kinase assay; type: biochemical; settings: purified recombinant p101/p110γ with G protein β1/γ2 subunits, 20 μM ATP, PIP2 lipid micelles
# T1 construct: HA; made in house; host or cells: Spodoptera frugiperda (Sf9) cells, baculovirus co-infection
# T1 sequence (P48736 whole entry, species assumed): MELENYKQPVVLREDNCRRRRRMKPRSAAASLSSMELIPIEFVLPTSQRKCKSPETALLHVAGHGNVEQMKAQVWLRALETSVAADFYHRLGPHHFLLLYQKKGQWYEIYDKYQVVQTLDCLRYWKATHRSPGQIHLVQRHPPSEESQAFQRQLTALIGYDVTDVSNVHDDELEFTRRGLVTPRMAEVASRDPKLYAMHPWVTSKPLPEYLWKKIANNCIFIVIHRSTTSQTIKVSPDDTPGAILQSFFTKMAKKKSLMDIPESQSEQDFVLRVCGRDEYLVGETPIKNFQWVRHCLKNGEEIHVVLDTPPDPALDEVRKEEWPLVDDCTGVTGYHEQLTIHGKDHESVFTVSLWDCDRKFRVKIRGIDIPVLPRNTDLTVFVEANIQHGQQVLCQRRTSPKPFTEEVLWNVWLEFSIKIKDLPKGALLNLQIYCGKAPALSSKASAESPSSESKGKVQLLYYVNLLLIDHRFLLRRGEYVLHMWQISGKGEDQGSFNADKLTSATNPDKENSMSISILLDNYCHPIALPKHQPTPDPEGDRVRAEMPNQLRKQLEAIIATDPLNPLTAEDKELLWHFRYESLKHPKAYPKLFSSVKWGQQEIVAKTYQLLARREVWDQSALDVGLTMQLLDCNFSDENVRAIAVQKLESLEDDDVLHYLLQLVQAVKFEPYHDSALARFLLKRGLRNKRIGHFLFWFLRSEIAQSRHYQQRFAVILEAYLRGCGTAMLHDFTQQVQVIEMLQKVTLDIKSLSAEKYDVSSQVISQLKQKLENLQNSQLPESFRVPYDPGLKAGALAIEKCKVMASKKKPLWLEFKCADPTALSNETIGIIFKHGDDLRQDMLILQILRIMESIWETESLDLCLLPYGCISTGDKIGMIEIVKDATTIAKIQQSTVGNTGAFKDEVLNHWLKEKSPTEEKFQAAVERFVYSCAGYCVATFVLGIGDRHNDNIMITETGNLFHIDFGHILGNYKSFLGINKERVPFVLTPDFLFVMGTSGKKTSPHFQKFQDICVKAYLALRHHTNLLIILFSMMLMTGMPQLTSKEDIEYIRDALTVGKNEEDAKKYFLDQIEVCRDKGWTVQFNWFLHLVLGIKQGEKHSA
# T1 sequence (Q8WYR1 whole entry partner, species assumed): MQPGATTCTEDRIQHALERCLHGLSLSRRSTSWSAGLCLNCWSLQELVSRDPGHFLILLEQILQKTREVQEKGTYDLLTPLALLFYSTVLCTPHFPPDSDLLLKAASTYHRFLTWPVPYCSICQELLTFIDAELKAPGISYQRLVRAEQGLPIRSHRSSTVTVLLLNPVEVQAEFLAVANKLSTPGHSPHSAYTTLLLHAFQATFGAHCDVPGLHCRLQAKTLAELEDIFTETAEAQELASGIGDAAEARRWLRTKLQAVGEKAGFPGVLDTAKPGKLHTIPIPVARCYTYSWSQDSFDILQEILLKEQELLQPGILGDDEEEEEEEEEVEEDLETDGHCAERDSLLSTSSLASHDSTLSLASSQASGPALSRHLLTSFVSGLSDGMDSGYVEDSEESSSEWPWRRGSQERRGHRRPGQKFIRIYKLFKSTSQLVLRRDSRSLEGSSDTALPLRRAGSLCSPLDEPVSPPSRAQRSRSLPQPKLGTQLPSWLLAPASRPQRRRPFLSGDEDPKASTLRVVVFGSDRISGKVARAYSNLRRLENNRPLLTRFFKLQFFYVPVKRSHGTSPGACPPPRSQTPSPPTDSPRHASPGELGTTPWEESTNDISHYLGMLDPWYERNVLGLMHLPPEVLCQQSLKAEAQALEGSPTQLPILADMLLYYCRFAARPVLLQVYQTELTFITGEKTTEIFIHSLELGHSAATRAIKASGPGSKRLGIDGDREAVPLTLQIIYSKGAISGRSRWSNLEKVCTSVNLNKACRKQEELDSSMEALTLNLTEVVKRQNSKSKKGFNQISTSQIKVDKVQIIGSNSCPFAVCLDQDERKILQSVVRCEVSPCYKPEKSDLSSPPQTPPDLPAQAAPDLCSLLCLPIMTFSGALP
# Protocol: Spodtera frugiperda cells, grown in ESF921 media, were co-infected with baculovirus expressing a glu-tagged p101 and baculovirus expressing an HA-tagged p110γ, at a 3:1 ratio of p101 baculovirus to p110γ baculovirus. Sf9 cells were grown to 1×10^7 total cells/mL in 10 L bioreactors and harvested 48-72 hours post infection. Samples of infected cells were then tested for expression of p101/p110γ PI3 kinase by immunoprecipitation and Western Blot analysis methods (see below).
# To purify PI3Kγ, 4 volumes of room temperature hypotonic lysis buffer (1 mM MgCl2, 1 mM DTT, 5 mM EGTA, 1 mM Pefabloc, 0.5 μM aprotinin, 5 μM leupeptin, 2 μM pepstatin, 5 μM E64, pH 8) per gram of cell paste, was poured onto frozen cell pellets with stirring, then lysed in a nitrogen “bomb” at 400 psi (599HC T316, Parr Instrument Co, Moline, Ill.). NaCl was added to 150 mM, and sodium cholate was added to 1% and mixed for another 45 minutes. The lysates were clarified by centrifugation for 25 minutes at 14,000 rpm. The lysates were then loaded over anti-glu-linked Protein-G Sepaharose beads (Covance Research Products, Richmond, Calif.) using 20 mL resin/50 g cell paste. The column was washed with 15 volumes of wash buffer (1 mM DTT, 0.2 mM EGTA, 1 mM Pefabloc, 0.5 μM aprotinin, 5 μM leupeptin, 2 μM pepstatin, 5 μM E64, 150 mM NaCl, 1% sodium cholate, pH 8). PI3Kγ was eluted with 6 column volumes of wash buffer that contain 100 μg/mL of a peptide that competes for binding of the glu tag. The column fractions with the eluted protein (determined by taking OD280 readings) were collected and dialyzed in 0.2 mM EGTA, 1 mM DTT, 1 mM Pefabloc, 5 μM leupeptin, 0.5% sodium cholate, 150 mM NaCl, and 50% glycerol, pH 8. The fractions were stored at −80° C. until further use.
# Spodtera frugiperda cells were coinfected with baculovirus expressing a glu-tagged G protein β1 and baculovirus expressing a G protein […], at a 1:1 ratio of glu-tagged G protein […] baculovirus to G protein β2 baculovirus. Sf9 cells are grown in 10 L bioreactors and harvested 48-72 hours post infection. Samples of infected cells were tested for G protein β1/β2 expression by Western Blot analysis, as described below. Cell lysates were homogenized and loaded onto a column of glu-tagged beads as in Biological Example 1 and competed off the column with a glu peptide and processed as described in Biological Example 1.
# The inhibitory properties of the compounds in Table 1 were assayed in an in vitro PI3K assay. In a 96-well polypropylene plate, each well was spotted with 2 μL of 50 times the desired final concentration of compound in DMSO. Purified recombinant p101/p110γ protein (0.03 μg; ˜2.7 nM) and G protein β1/γ2 subunits (0.09 μg; ˜57.7 nM) for each reaction was combined in the assay buffer (30 mM HEPES, 100 mM NaCl, 1 mM EGTA, and 1 mM DTT). ATP and [γ-^32P-ATP] (0.09 μCi) were added to this mixture so that the final ATP concentration in the reaction was 20 μM. Lipid micelles were formed by sonicating phosphatidylinositol-4,5-diphosphate (PIP2), phosphatidylethanolamine (PE), and Na-cholate in the assay buffer for 10 minutes, adding MgCl2 and incubating on ice for 20 minutes, for final concentrations of 25 μM PIP2, 300 μM PE, 0.02% Na-cholate, and 10 mM MgCl2 in the reaction. The reactions were started by adding equal volumes lipid and enzyme mixture in a total volume of 50 μL, allowed to run for 20 minutes at room temperature, and stopped with 100 μL 75 mM H3PO4. The lipid product was transferred to a glass fiber filter plate and washed with 75 mM H3PO4 several times. The presence of radioactive lipid product (PIP3) was measured by adding Wallac Optiphase mix to each well and counting in a Wallac 1450 Trilux plate reader (PerkinElmer Life Sciences Inc., Boston, Mass. 02118). The IC50 for each compound tested is reported in μM in the Tables above.
structure (smiles),measurement,setting,value
"O=C(Nc1nn[nH]n1)c1cnc(N2CCOCC2)nc1OC1CCCCCC1 [Example 1, 4-Cycloheptyloxy-2-morpholin-4-yl-pyrimidine-5-carboxylic acid (2H-tetrazol-5-yl)-amide]",inhibition of clinical score,[1],35%
same,inhibition of paw edema,[1],52%
same,ID50 for inhibition of paw edema,[2],16.3 mg/kg
same,IC50,[3],197 nM
